Laboratory results published in patent publication US7855228B2, “Antibiotics targeting MreB” (The Board of Trustees of the Leland Stamford Junior …, priority 2005, dated 2010).
Converted amounts (≈) assume the structure as drawn. Like-named read-outs stand apart in the source and are kept apart here.

How the values were obtained:
[1] = tested on: E. coli MG1655; experiment: Microscopic observation of cell shape; assay type: cell-based; settings: for Effect on E. coli cell morphology (in words): 3×MIC or 300 μg/ml, 16 hrs
Description: Microscopic observation. E. coli K-12 strain MG1655 (F^− λ^−) was grown in Lennox broth containing 1% Polypepton, 0.5% yeast extract, 0.5% NaCl, and 0.1% glucose (pH 7.2). Cells spread on a slide glass were treated with methanol for 5 min and covered with poly-L-lysine. The fixed cells were observed by the differential interference contrast system through an Axioskop 2 microscope (Carl Zeiss Co., Ltd., Oberkochen, Germany). To observe the anucleate cells, cells were stained with a 4′,6-diamidino-2-phenylindole (DAPI) solution (5 μg/ml in saline) and then observed by the fluorescence phase-contrast combined method.
The effect of each compound on E. coli cell morphology was next examined.

[2] = tested on: P. putida NBRC14164; experiment: Determination of minimum inhibitory concentration (MIC); assay type: cell-based, Pseudomonas putida; settings: for MIC: Pseudomonas putida; for MIC P. putida: Example 2
Description: (§1) Determination of minimum inhibitory concentration (MIC). MICs were also determined on Mueller Hinton agar plates (0.2% beef extract, 1.75% acid digest of casein, 0.15% soluble starch, 1.5% agar, pH 7.3).
(§2) Determination of MIC Minimal inhibitory concentrations (MICs) were determined using a standard 2-fold serial dilution format on L agar plates. Ten microliters of stationary culture diluted in 0.85% NaCl to 10^6 cells/ml were spotted on per plate. […] MICs were also determined on Mueller Hinton agar plates (0.2% beef extract, 1.75% acid digest of casein, 0.15% soluble starch, 1.5% agar, pH 7.3).

[3] = tested on: S. typhimurium NBRC13245; experiment: as above; assay type: cell-based, Salmonella typhimurium; settings: for MIC: Salmonella enterica, read-out: MIC S. typhimurium
Description: as §1, §2

[4] = tested on: S. aureus subsp. aureus NBRC15035; experiment: as above; assay type: cell-based, Staphylococcus aureus; settings: for MIC: Staphylococcus aureus; for MIC S. aureus: Example 2
Description: as §1, §2

[5] = tested on: E. coli MG1655; experiment: as above; assay type: cell-based; settings: for MIC: Escherichia coli; for MIC E. coli: Example 2
Description: as §1, §2

[6] = tested on: E. coli K-12 strain SH3210; experiment: Anucleate cell blue assay; assay type: cell-based
Description: Anucleate cell blue assay. The anucleate cell blue assay was carried out as reported previously. Briefly, E. coli K-12 strain SH3210 (ΔtrpE5 his λ pXX747) was grown in a P medium containing 1% Polypepton and 0.5% NaCl (pH 7). Paper disks (φ 8 mm) each soaked with 20 μl of a sample solution were placed on P medium agar plates (1.5% agar) containing 10^4 cells/ml of SH3210 and 40 μg/ml of 5-bromo-4-chloro-3-indolyl β-D-galactoside. The plates were incubated at 42° C. for 24 h, and the development of a blue color and the growth inhibitory zone around the paper disks were evaluated.
Since 1 had originally been found through screening by an anucleate cell blue assay, the effect of each compound was first examined by this assay.

[7] = tested on: B. subtilis 168; experiment: Determination of minimum inhibitory concentration (MIC); assay type: cell-based, Bacillus subtilis; settings: for MIC B. subtilis: Example 2
Description: as §1, §2

[8] = E. coli MG1655 treated at 3×MIC (*), 30° C., 16 h
[9] = Example 2, methods as in Example 1
[10] = NBRC14164, Example 2, methods as in Example 1, read-out: MIC P. putida
[11] = NBRC14164, Table 1, NBRC14164, read-out: MIC P. putida
[12] = NBRC15035, Example 2, methods as in Example 1, read-out: MIC S. aureus
[13] = NBRC15035, Table 1, NBRC15035, read-out: MIC S. aureus
[14] = MG1655, Example 2, methods as in Example 1, read-out: MIC E. coli
[15] = MG1655, Table 1, E. coli MG1655, read-out: MIC E. coli
[16] = Bacillus subtilis, 168, Example 2, methods as in Example 1, read-out: MIC B. subtilis
[17] = Bacillus subtilis, 168, Table 1, B. subtilis 168, read-out: MIC B. subtilis
[18] = E. coli MG1655 treated at 300 μg/ml (**), 30° C., 16 h
[19] = NBRC14164, read-out: MIC P. putida
[20] = NBRC15035, read-out: MIC S. aureus
[21] = Bacillus subtilis, 168, read-out: MIC B. subtilis

Row | Structure (SMILES) | Shape [1, 9] | MIC [2, 10] [µg/mL] | MIC [2, 11] [µg/mL] | MIC [3, 9] [µg/mL] | MIC ([3]; Table 1, NBRC13245) [µg/mL] | MIC [4, 12] [µg/mL] | MIC [4, 13] [µg/mL] | MIC [5, 14] [µg/mL] | MIC [5, 15] [µg/mL] | Growth inhibitory zone and blue zone in the anucleate cell blue assay (in words) [6] | MIC [7, 16] [µg/mL] | MIC [7, 17] [µg/mL] | other results
1 | N=C(N)SCc1ccc(Cl)cc1 [Compound 2, S-(4-chlorobenzyl)isothiourea] | Sphere | > 100 | > 100 | 3.13 (≈ 15.6 µM) | 3.13 (≈ 15.6 µM) | > 100 | > 100 | 3.13 (≈ 15.6 µM) | 3.13 (≈ 15.6 µM) | deep blue zone around a growth inhibitory zone almost comparable to those of 1 | > 100 | > 100 | Effect on E. coli cell morphology (in words) ([1]; 30° C.): induced a spherical cell shape; Shape [1, 8]: Sphere*
2 | N=C(N)SCc1ccccc1 [Compound 3, S-benzylisothiourea] | Sphere | > 100 | > 100 | > 100 | > 100 | > 100 | > 100 | 100 (≈ 602 µM) | 100 (≈ 602 µM) | blue zone just around the paper disk, but only a marginal growth inhibitory zone was detected | > 100 | > 100 | Effect on E. coli cell morphology (in words) ([1]; 30° C.): induced a spherical cell shape; Shape [1, 8]: Sphere*
3 | N=C(N)SCc1ccc(F)cc1 [Compound 4-F, S-(4-Fluoro-benzyl)-isothiourea] | Sphere | > 100 |  | 12.5 (≈ 67.8 µM) |  | 100 (≈ 543 µM) |  | 12.5 (≈ 67.8 µM) |  |  | 50 (≈ 271 µM) |  | 
4 | N=C(N)SCc1ccc(I)cc1 [Compound 4-I, S-(4-Iodo-benzyl)-isothiourea] | Sphere | > 100 |  | 25 (≈ 85.6 µM) |  | > 100 |  | 12.5 (≈ 42.8 µM) |  |  | > 100 |  | 
5 | COc1ccc(CSC(=N)N)cc1 [Compound 4-MeO] | Sphere | > 100 |  | > 100 |  | > 100 |  | > 100 |  |  | > 100 |  | 
6 | N=C(N)SCc1ccc([N+](=O)[O-])cc1 [Compound 4-NO2, S-(4-Nitro-benzyl)-isothiourea] | Sphere | > 100 |  | 50 (≈ 237 µM) |  | > 100 |  | 25 (≈ 118 µM) |  |  | 25 (≈ 118 µM) |  | 
7 | N=C(N)SCC1CCCCC1 [Compound 4] | Short Rod | > 200 | > 100 | > 200 | > 100 | > 200 | > 100 | > 200 | > 100 | neither a growth inhibitory zone nor blue zone | > 200 | > 100 | Effect on E. coli cell morphology (in words) ([1]; 30° C.): shorter than corresponding untreated cells, but spherical cells were not induced; Shape [1, 18]: Rod**
8 | CCCCCCCSC(=N)N [Compound 5, S-heptylisothiourea] | Rod | 200 (≈ 1150 µM) | > 100 | > 200 | > 100 | > 200 | > 100 | 200 (≈ 1150 µM) | > 100 | a growth inhibitory zone as well as a blue zone | > 200 | > 100 | Effect on E. coli cell morphology (in words) ([1]; 30° C.): somewhat elongated cells, but not spherical cells; Shape [1, 18]: Rod**
9 | CCSC(=N)N [Compound 6, S-ethylisothiourea] | Rod |  |  |  |  |  |  |  |  | neither a growth inhibitory zone nor blue zone |  |  | Shape [1, 18]: Rod**; MIC P. putida ([2]; methods as in Example 1): >100 µg/mL; MIC [2, 19]: > 100 µg/mL; MIC S. typhimurium [3, 9]: >100 µg/mL; MIC [3]: > 100 µg/mL; MIC S. aureus ([4]; methods as in Example 1): >100 µg/mL; MIC [4, 20]: > 100 µg/mL; MIC ([5]; MG1655, read-out: MIC E. coli): > 100 µg/mL; MIC E. coli ([5]; methods as in Example 1): >100 µg/mL; MIC [7, 21]: > 100 µg/mL; MIC B. subtilis ([7]; methods as in Example 1): >100 µg/mL
10 | N#CSCc1ccccc1 [Compound 7, S-benzylithiocyanate, reference compound] | Rod |  |  |  |  |  |  |  |  | neither a growth inhibitory zone nor blue zone |  |  | Shape [1, 8]: Rod*; MIC P. putida ([2]; methods as in Example 1): >100 µg/mL; MIC [2, 19]: > 100 µg/mL; MIC S. typhimurium [3, 9]: >100 µg/mL; MIC [3]: > 100 µg/mL; MIC S. aureus ([4]; methods as in Example 1): >100 µg/mL; MIC [4, 20]: > 100 µg/mL; MIC ([5]; MG1655, read-out: MIC E. coli): > 100 µg/mL; MIC E. coli ([5]; methods as in Example 1): >100 µg/mL; MIC [7, 21]: > 100 µg/mL; MIC B. subtilis ([7]; methods as in Example 1): >100 µg/mL
11 | S=C=NCc1ccccc1 [Compound 8, benzylisothiocyanate, reference compound] | Rod | > 100 | > 100 | 100 (≈ 670 µM) | 100 (≈ 670 µM) | 12.5 (≈ 83.8 µM) | 12.5 (≈ 83.8 µM) | 50 (≈ 335 µM) | 50 (≈ 335 µM) | a growth inhibitory zone, but no blue zone developed | 25 (≈ 168 µM) | 25 (≈ 168 µM) | Shape [1, 18]: Rod**
12 | CC1(C)S[C@@H]2[C@H](NC(=O)c3ccccc3)C(=O)N2[C@H]1C(=O)O [PCG, reference compound] | Fil | > 100 |  | 12.5 (≈ 39 µM) |  | 0.0977 (≈ 0.305 µM) |  | 50 (≈ 156 µM) |  |  | 0.0122 (≈ 0.0381 µM) |  | 
13 | I.Nc1nc(-c2ccccc2)cs1 [TZ, reference compound] | Rod | > 100 |  | > 100 |  | > 100 |  | > 100 |  |  | > 100 |  | 
14 | N=C(N)SCc1c(F)c(F)c(F)c(F)c1F [pentaF] | Sphere | > 100 |  | > 100 |  | > 100 |  | > 100 |  |  | > 100 |  | 
